Laboratory results: US11667651B2, “Aminopyridine derivatives as phosphatidylinositol phosphate kinase inhibitors” (HiberCell, Inc., priority 2017, dated 2023)

Legend:
Format in all cases: biochemical
PIP4K2B = target: T1, PIP4K2B (Homo sapiens, UniProt P78356); test: Trans-FI P kinase assay PIP4K2B (Table 4); settings: compounds listed under IC50 bins; read-out: Trans-FI P kinase assays: PIP4K2B IC50
T1 construct: made in house; host or cells: E. coli
T1 sequence (P78356 1-416): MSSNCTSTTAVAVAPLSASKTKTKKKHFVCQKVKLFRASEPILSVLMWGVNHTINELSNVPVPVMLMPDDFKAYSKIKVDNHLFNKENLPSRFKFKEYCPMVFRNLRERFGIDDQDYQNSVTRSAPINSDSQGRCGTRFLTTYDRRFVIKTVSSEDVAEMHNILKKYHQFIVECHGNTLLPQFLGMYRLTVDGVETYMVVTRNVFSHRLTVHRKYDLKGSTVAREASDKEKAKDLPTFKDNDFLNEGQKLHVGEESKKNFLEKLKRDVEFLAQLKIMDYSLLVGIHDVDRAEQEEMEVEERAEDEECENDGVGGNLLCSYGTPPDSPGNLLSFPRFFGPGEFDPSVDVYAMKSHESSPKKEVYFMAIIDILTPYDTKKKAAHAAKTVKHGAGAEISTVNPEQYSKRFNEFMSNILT
Summary of the method: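 Transcreener FI detection (Ex 584/Em 623) of GDP, converted via calibration curve, gives IC50 from residual activity versus log concentration (highest 4.8 μM). Reaction: 80 μM PI5P plus DOPE carrier, 100 μM GTP, 5 nM GST-tagged enzyme, pH 7.3 HEPES with MgCl2 and 5% DMSO, 2 h after 1 h enzyme-compound preincubation at 27° C.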

PIP4K2A [1] = target: T2, PIP4K2A (Homo sapiens, UniProt P48426); test: ADP-glo kinase assay PIP4K 2A (Table 3); parameters: made in house; host or cells: E. coli; settings: compounds listed under IC50 bins
T2 sequence (P48426 1-406): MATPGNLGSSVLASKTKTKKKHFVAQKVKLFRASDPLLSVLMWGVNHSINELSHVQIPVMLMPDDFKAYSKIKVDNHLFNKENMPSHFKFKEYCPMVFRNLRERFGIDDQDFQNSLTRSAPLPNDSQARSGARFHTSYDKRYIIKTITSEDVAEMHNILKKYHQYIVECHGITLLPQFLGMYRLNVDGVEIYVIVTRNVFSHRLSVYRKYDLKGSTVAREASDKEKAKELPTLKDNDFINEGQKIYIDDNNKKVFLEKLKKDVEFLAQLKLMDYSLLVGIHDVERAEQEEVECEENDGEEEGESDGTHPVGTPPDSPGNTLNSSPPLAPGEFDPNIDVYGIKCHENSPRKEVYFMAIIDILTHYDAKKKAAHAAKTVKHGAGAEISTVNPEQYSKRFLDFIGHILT
Summary of the method: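 ADP-Glo luminescence detected ADP after 1 h RT reaction started by ATP (60 μM solution) on full-length PIP4K2A (4 nM in mix) and PI(5)P diC8 (100 μM in mix), preceded by 15 min enzyme-compound preincubation in MOPS pH 7.2/25 mM MgCl2. Percent inhibition versus DMSO over 10 concentrations fitted for IC50.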

PIP4K2A [2] = target: T2, PIP4K2A; test: Kinase Assay PIP4K2 A (Table 2); parameters: 4 nM PIP4K2A (full length protein, SignalChem); purchased SignalChem; settings: compounds listed under IC50 bins
Summary of the method: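 ADP-Glo luminescent read-out after 1 h room-temperature kinase reaction, started with 60 μM ATP solution following 15 min compound pre-incubation. Enzyme/substrate mix: 4 nM full-length PIP4K2A plus 100 μM PI(5)P diC8; buffer MOPS pH 7.2 with 25 mM MgCl2 and Tween 20. IC50 from 10-point, 3-fold titrations normalized to DMSO.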

| SMILES | IC50 (PIP4K2B) [nM] | IC50 (PIP4K2A [1]) [nM] | IC50 (PIP4K2A [2]) [nM] |
| --- | --- | --- | --- |
| CN(C)C/C=C/C(=O)Nc1cccc(C(=O)Nc2cncc(Nc3ccc(-c4ccc(C(=O)N(C)C)cc4)cn3)c2)c1 [Example 100, (E)-4-(6-((5-(3-(4-(dimethylamino)but-2-enamido)benzamido)pyridin-3-yl)amino)pyridin-3-yl)-N,N-dimethylbenzamide] | 10 to 100 | 10 to 100 | 1 to 10 |
| CN(C)C(=O)c1ccc(-c2ccc(Nc3cncc(NC(=O)CCc4cccc(NC(=O)OC(C)(C)C)c4)c3)nc2)cc1 [Example 101, tert-butyl (3-(3-((5-((5-(4-(dimethylcarbamoyl)phenyl)pyridin-2-yl)amino)pyridin-3-yl)amino)-3-oxopropyl)phenyl)carbamate] | 10 to 100 | 100 to 1000 | 10 to 100 |
| CN(C)C(=O)c1ccc(-c2ccc(Nc3cncc(NC(=O)CCc4cccc(N)c4)c3)nc2)cc1 [Example 102, 4-(6-((5-(3-(3-aminophenyl)propanamido)pyridin-3-yl)amino)pyridin-3-yl)-N,N-dimethylbenzamide] | 10 to 100 | 10 to 100 | 1 to 10 |
| CN(C)C/C=C/C(=O)Nc1cccc(CCC(=O)Nc2cncc(Nc3ccc(-c4ccc(C(=O)N(C)C)cc4)cn3)c2)c1 [Example 103, (E)-4-(6-((5-(3-(3-(4-(dimethylamino)but-2-enamido)phenyl)propanamido)pyridin-3-yl)amino)pyridin-3-yl)-N,N-dimethylbenzamide] | 10 to 100 | 10 to 100 | 1 to 10 |
| CN(C)C(=O)c1ccc(-c2ccc(Nc3ccc(CNC(=O)c4cccc(NC(=O)OC(C)(C)C)c4)nc3)nc2)cc1 [Example 104, tert-butyl (3-(((5-((5-(4-(dimethylcarbamoyl)phenyl)pyridin-2-yl)amino)pyridin-2-yl)methyl)carbamoyl)phenyl)carbamate] | > 1000 | > 1000 | 100 to 1000 |
| CN(C)C/C=C/C(=O)Nc1cccc(C(=O)NCc2ccc(Nc3ccc(-c4ccc(C(=O)N(C)C)cc4)cn3)cn2)c1 [Example 106, (E)-4-(6-((6-((3-(4-(dimethylamino)but-2-enamido)benzamido)methyl)pyridin-3-yl)amino)pyridin-3-yl)-N,N-dimethylbenzamide] | 10 to 100 | 100 to 1000 | 100 to 1000 |
| CN(C)C(=O)c1ccc(-c2ccc(Nc3cncc(NC(=O)CCc4cccc(NC(=O)CN)c4)c3)nc2)cc1 [Example 107, 4-(6-((5-(3-(3-(2-aminoacetamido)phenyl)propanamido)pyridin-3-yl)amino)pyridin-3-yl)-N,N-dimethylbenzamide] | 10 to 100 | 100 to 1000 | 100 to 1000 |
| CN(C)C/C=C/C(=O)NCC(=O)Nc1cccc(CCC(=O)Nc2cncc(Nc3ccc(-c4ccc(C(=O)N(C)C)cc4)cn3)c2)c1 [Example 108, (E)-4-(6-((5-(3-(3-(2-(4-(dimethylamino)but-2-enamido)acetamido)phenyl)propanamido)pyridin-3-yl)amino)pyridin-3-yl)-N,N-dimethylbenzamide] | > 1000 | 100 to 1000 | 100 to 1000 |
| CN(C)C(=O)c1ccc(-c2ccc(Nc3cncc(NC(=O)CCc4cccc(NC(=O)C5CCNCC5)c4)c3)nc2)cc1 [Example 109, N-(3-(3-((5-((5-(4-(dimethylcarbamoyl)phenyl)pyridin-2-yl)amino)pyridin-3-yl)amino)-3-oxopropyl)phenyl)piperidine-4-carboxamide] | 10 to 100 | 1 to 10 | 1 to 10 |
| CN(C)C/C=C/C(=O)N1CCC(C(=O)Nc2cccc(CCC(=O)Nc3cncc(Nc4ccc(-c5ccc(C(=O)N(C)C)cc5)cn4)c3)c2)CC1 [Example 110, (E)-1-(4-(dimethylamino)but-2-enoyl)-N-(3-(3-((5-((5-(4-(dimethylcarbamoyl)phenyl)pyridin-2-yl)amino)pyridin-3-yl)amino)-3-oxopropyl)phenyl)piperidine-4-carboxamide] | > 1000 | 100 to 1000 | 100 to 1000 |
| CN(C)C(=O)c1ccc(-c2ccc(Nc3cncc(NC(=O)CCc4cccc(NC(=O)CCCCCN)c4)c3)nc2)cc1 [Example 111, 4-(6-((5-(3-(3-(6-aminohexanamido)phenyl)propanamido)pyridin-3-yl)amino)pyridin-3-yl)-N,N-dimethylbenzamide] | 10 to 100 | 1 to 10 | 1 to 10 |
| CN(C)C/C=C/C(=O)NCCCCCC(=O)Nc1cccc(CCC(=O)Nc2cncc(Nc3ccc(-c4ccc(C(=O)N(C)C)cc4)cn3)c2)c1 [Example 112, (E)-4-(6-((5-(3-(3-(6-(4-(dimethylamino)but-2-enamido)hexanamido)phenyl)propanamido)pyridin-3-yl)amino)pyridin-3-yl)-N,N-dimethylbenzamide] | > 1000 | 100 to 1000 | 100 to 1000 |
| CN(C)C(=O)c1ccc(-c2ccc(Nc3cncc(NC(=O)c4cccc(NC(=O)CCOCCOCCN)c4)c3)nc2)cc1 [Example 113, 4-(6-((5-(3-(3-(2-(2-aminoethoxy)ethoxy)propanamido)benzamido)pyridin-3-yl)amino)pyridin-3-yl)-N,N-dimethylbenzamide] | 10 to 100 | 10 to 100 | 10 to 100 |
| CN(C)C/C=C/C(=O)NCCOCCOCCC(=O)Nc1cccc(C(=O)Nc2cncc(Nc3ccc(-c4ccc(C(=O)N(C)C)cc4)cn3)c2)c1 [Example 114, (E)-N,N-dimethyl-4-(6-((5-(3-(2-methyl-6-oxo-10,13-dioxa-2,7-diazahexadec-4-en-16-amido)benzamido)pyridin-3-yl)amino)pyridin-3-yl)benzamide] | 10 to 100 | 100 to 1000 | 10 to 100 |
| CN(C)C(=O)c1ccc(-c2ccc(Nc3cncc(NC(=O)c4ccc(N)cc4)c3)nc2)cc1 [Example 116, 4-(6-((5-(4-aminobenzamido)pyridin-3-yl)amino)pyridin-3-yl)-N,N-dimethylbenzamide] | 10 to 100 | 10 to 100 | 10 to 100 |
| CN(C)C/C=C/C(=O)Nc1ccc(C(=O)Nc2cncc(Nc3ccc(-c4ccc(C(=O)N(C)C)cc4)cn3)c2)cc1 [Example 117, (E)-4-(6-((5-(4-(4-(dimethylamino)but-2-enamido)benzamido)pyridin-3-yl)amino)pyridin-3-yl)-N,N-dimethylbenzamide] | 10 to 100 | 10 to 100 | 1 to 10 |
| CN(C)C(=O)c1ccc(-c2ccc(Nc3cncc(NC(=O)CCc4ccc(N)cc4)c3)nc2)cc1 [Example 118, 4-(6-((5-(3-(4-aminophenyl)propanamido)pyridin-3-yl)amino)pyridin-3-yl)-N,N-dimethylbenzamide] | 10 to 100 | 10 to 100 | 10 to 100 |
| CN(C)C/C=C/C(=O)Nc1ccc(CCC(=O)Nc2cncc(Nc3ccc(-c4ccc(C(=O)N(C)C)cc4)cn3)c2)cc1 [Example 119, (E)-4-(6-((5-(3-(4-(4-(dimethylamino)but-2-enamido)phenyl)propanamido)pyridin-3-yl)amino)pyridin-3-yl)-N,N-dimethylbenzamide] | 10 to 100 | 10 to 100 | 1 to 10 |
| COC(=O)Nc1cncc(Nc2ccc(-c3ccc(C(=O)N(C)C)cc3)cn2)c1 [Example 120, methyl(5-((5-(4-(dimethylcarbamoyl)phenyl)pyridin-2-yl)amino)pyridin-3-yl)carbamate] | 10 to 100 | 100 to 1000 | 10 to 100 |
| CN(C)C(=O)c1ccc(-c2ccc(Nc3cncc(NC(=O)c4ccccc4)c3)nc2)cc1 [Example 121, 4-(6-((5-benzamidopyridin-3-yl)amino)pyridin-3-yl)-N,N-dimethylbenzamide] | 10 to 100 | 10 to 100 | 10 to 100 |
